From publication PMC5131364, “Pharmacologic modulation of RORγt translates to efficacy in preclinical and translational models of psoriasis and inflammatory arthritis” (Scientific Reports, 2016)

Tests used:
Type in all cases: cell-based
[1] = test system: CD4+ T cells from draining lymph nodes restimulated with OVA; assay: In vivo mouse Th17 differentiation (OVA/CFA) and in vitro restimulation; conditions: 1 μM, OVA restimulation
From the text: The following antibodies (anti-mouse or anti-human) were purchased from BD Biosciences (San Diego, CA) or eBioscience (San Diego, CA): anti-CD3-FITC (mouse 17A2 and human SK7), anti-CD4-allophycocyanin (APC), anti-CD4-PerCp, anti-CD4-FITC, anti-CD4-PE (mouse GK1.5 and human SK3), anti-CD44-PerCp (mouse IM7), anti-γδ TCR-FITC, anti-γδ TCR-PE (mouse GL3 and human B1), anti-CD62L-FITC (mouse MEL-14 and human SK11), anti-CD45RO-APC (human UCHL1), anti-CCR6-PE (human 11A9), anti-CD45-PerCp (mouse 30-F11). Human or mouse anti-IFNγ (mouse XMG1.2 and human 4S.B3), anti-TNFα (mouse MP6-XT22 and human MAB11), anti-IL-17A (mouse eBio17B7 and human eBio64DEC17), anti-IL-22 (mouse 1H8PWSR and human 22URTI), and anti-Foxp3 (mouse FJK-16s and human 36A/E7), all PE or APC conjugated, were purchased from eBioscience (San Diego, CA). Human and mouse APC conjugated CD1d tetramers pre-loaded with alpha-GalCer and negative controls were obtained from ProImmune. […] Cells were stained with fluorescence-labeled antibodies for surface marker, then fixed/permeabilized (eBioscience) and stained with antibodies for intracellular cytokines. […] The data were acquired on a FACS Calibur (BD Bioscience) and analyzed using FlowJo software (Tree Star, San Carlos, CA). […]

[2] = test system: human iTreg cells co-cultured with responder CD4+ T cells; assay: Human inducible regulatory T cells suppressive function; conditions: iTreg generated in presence of 1 μM, CFSE
Procedure: 37 °C and 5% CO2 for 6 days. Cells were used for flow cytometry analysis of FOXP3+CD4+ T cells and RNA isolation to determine FOXP3 expression. The probe sets were purchased form Life technologies, FOXP3 […]
Human inducible regulatory T cells generation and suppressive function
To generate inducible regulatory T cells, naïve CD4 T cells was purified from PBMCs using naive CD4+ T cell isolation kit II, human (Miltenyi) and stimulated with anti‐CD3/anti‐CD28 antibodies plus IL‐2 and TGF‐β (10 ng/ml each, R&D system) in the presence or absence of 1µM JNJ‐54271074 . After 6‐7 days T cells were washed and Foxp3 expression was evaluated by FACS. […] After 4 days CFSE dilution was evaluated by FACS as an indication of responder T cell’s proliferation.
Supplementary Figure 1. […] Accumulated IL‐ 17A or IFNγ  was measured by ELISA.
Supplementary Figure 2. […] Total splenocytes were cultured with IL‐23 and IL‐2 in the presence of titrated JNJ‐54271074 for 4 days, and supernatants were measured for IL‐17A and IL‐22 by ELISA. IC50 was determined using Prism Graphpad.
Supplementary Figure 3. […] Cells were analyzed by flow cytometry for 17A+ and IL‐ 17A+/22+ population (A). […] Cells from DMSO or 1 µM JNJ‐54271074 treated wells were analyzed by flow cytometry for IFNγ+ and IL‐17A+ population (B) and IFNγ level in supernatants was […]

[3] = test system: human γδ+ T cells in PBMCs; assay: Human γδ+ T cell in vitro activation; conditions: 168 h, IL-1β, IL-23 and IPP, 7 days, average, read-out: inhibition of the IL-17A+ γδ+ T cell population
From the text: The following antibodies (anti-mouse or anti-human) were purchased from BD Biosciences (San Diego, CA) or eBioscience (San Diego, CA): anti-CD3-FITC (mouse 17A2 and human SK7), anti-CD4-allophycocyanin (APC), anti-CD4-PerCp, anti-CD4-FITC, anti-CD4-PE (mouse GK1.5 and human SK3), anti-CD44-PerCp (mouse IM7), anti-γδ TCR-FITC, anti-γδ TCR-PE (mouse GL3 and human B1), anti-CD62L-FITC (mouse MEL-14 and human SK11), anti-CD45RO-APC (human UCHL1), anti-CCR6-PE (human 11A9), anti-CD45-PerCp (mouse 30-F11). Human or mouse anti-IFNγ (mouse XMG1.2 and human 4S.B3), anti-TNFα (mouse MP6-XT22 and human MAB11), anti-IL-17A (mouse eBio17B7 and human eBio64DEC17), anti-IL-22 (mouse 1H8PWSR and human 22URTI), and anti-Foxp3 (mouse FJK-16s and human 36A/E7), all PE or APC conjugated, were purchased from eBioscience (San Diego, CA). Human and mouse APC conjugated CD1d tetramers pre-loaded with alpha-GalCer and negative controls were obtained from ProImmune. […] Cells were stained with fluorescence-labeled antibodies for surface marker, then fixed/permeabilized (eBioscience) and stained with antibodies for intracellular cytokines. […] The data were acquired on a FACS Calibur (BD Bioscience) and analyzed using FlowJo software (Tree Star, San Carlos, CA).
Human γδ^+ T cells were analyzed only through flow cytometry. […]

COc1nc2ccc([C@@](O)(c3ccc(C)nc3C)c3cnnn3C)cc2c(Cl)c1Cc1ccc(C(F)(F)F)cc1 [JNJ-54271074]
IL-17A+ and IL-17A+ IL-22+ CD4+ T cells [1]: significantly suppressed | IL-22 single positive cells [1]: no effect | Treg suppressive activity on T cell proliferation [2]: not affected | inhibition at 1 µM [3]: 56%
